The record followed here is patent US20240376087A1, “PYRAZOLE AMIDE BASED COMPOUNDS AND USES AGAINST BREAST CANCER THEREOF” (COUNCIL OF SCIENTIFIC AND INDUSTRIAL RESEARCH AN INDIAN …, priority 2021, published 2024).

“Also recorded” adds a separate entry of the source.

The test system of data set [1] is MDA MB 231 cells. Kind of data set: Colony formation assay. Format: cell-based, human. The note with it: 48 hr pretreatment, 14 days. As to the method: The pretreated cells with different concentrations of NIIST-AC-1 for 48 hr were plated in six well plates and allowed to grow and colonize for 14 days. The colonies were stained with crystal violet for 2 hr after fixing with acetic acid and methanol. The visible colonies were photographed and the colon area was quantified using ImageJ 1.52p software.

Data set [2] concerns MDA MB 231 cells. Kind of data set: Glucose uptake study (2-NBDG, FACS). Format: cell-based, human. The method, then: The effect of NIIST-AC-1 on the uptake of glucose was analyzed by flow cytometry using 2-NBDG. After incubation of the cells with different concentrations of NIIST-AC-1, the cell culture medium was replaced with medium containing fluorescent 2-NBDG and incubated for 30 minutes. Then the samples were analyzed using BD FACSAria II (BD Biosciences) at FITC range (excitation, 465 nm; emission 540-nm bandpass filter). The mean fluorescence intensities of different groups were analyzed by BD FACSDiva ver 6.1.3 software and corrected for autofluorescence from unlabeled cells.

A further data set deals with EGFR. Description: EGFR expression studies (immunofluorescence). The format is cell-based, human. Conditions: fluorescent images. As to the method: The expression of EGFR after treatment with NIIST-AC-1 was evaluated using indirect immunofluorescence. The cells after treatment were fixed with paraformaldehyde and incubated with primary antibody overnight. After washing the primary antibody, the cells were treated with alexa fluor conjugated secondary antibody for visualization. The cells were counterstained with DAPI for nuclear staining and were observed under a fluorescent microscope (IX83 inverted microscope; Olympus Life Science, cell Sens Dimension ver 3.1 software).

The test system of data set [3] is MDA MB 231 cells. Kind of data set: Cytotoxicity studies by MTT assay. Format: cell-based. The note with it: Homo sapiens, 24 hrs, read-out: GI50 (50% growth inhibition value). As to the method:
(§1) The cells used for the study, human breast adenocarcinoma (MDA-MB-231) and normal human lung fibroblast cells ([…]) were procured from NCCS, Pune, India, and ATCC, VA, USA, respectively. Cells were maintained in standard culture conditions in DMEM supplemented with 10% FBS and 100 units/ml penicillin/streptomycin under 5% CO2 at 37° C. in a humidified incubator. After 2-3 passages, the cells were seeded on cell culture dishes and were used for different experiments.
A 10 mM stock solution of I-8 was prepared in DMSO and diluted with DMEM supplemented with 5% FBS for each experiment so that the DMSO concentration was <0.1% in the treated cells. Paclitaxel at a concentration of 50 nM was used as the positive control.
MTT assay was used for testing the cytotoxicity of NIIST-AC-1 in MDA MB 231 cells. 1×10^4 cells/well were seeded in 96 well culture plates and were treated with different concentrations of NIIST-AC-1 for 24 hrs. The percentage of viable cells were monitored based on the purple colour developed by MTT at 570 nm and from that the concentration of NIIST-AC-1 required for 50% inhibition of the viability was calculated as the GI50 value.

Data set [4] concerns proteins in the extrinsic and intrinsic pathway of apoptosis. Description: Protein array for expression of apoptotic proteins. The format is cell-based, human. Conditions: MDA MB 231 lysates. The method, then:
The expression of various proteins in the extrinsic and intrinsic pathway of apoptosis on treatment with NIIST-AC-1 was analyzed by using antibody pair-based assay, where the 43 targets were captured on a membrane. Lysates of control and treated cells were spotted to the membrane as protein equivalents. Paired biotinylated detector antibodies and streptavidin HRP were used for development using chemiluminescent method. Comparison of the membrane were done using densitometry software.

In a further data set the test system is caspase-3. Description: Assay of caspase 3 (fluorometric, cell lysates). Conditions: MDA MB 231 cell lysates, DEVD-AFC. Format: cell-based, human. As to the method: The activities of the initiator caspase-9 and downstream executioner caspase-3 were measured using Fluorometric Assay Kit. The caspase activity in the cell lysates of control and treated cells were measured by using the fluorescent substrate DEVD-AFC (for caspase-3 activity) and LEHD-AFC (for caspase-9 activity). Samples were read at 400-nm excitation filter and 505-nm emission filter in a fluorescent microplate reader (BioTek Synergy HT) using Gen5™ ver 1.05.11 software, and the results were expressed as relative units in terms of fluorescence.

The test system of data set [5] is MDA MB 231 cells. Description: Measurement of intracellular reactive oxygen species (FACS). The format is cell-based, human. Conditions: MDA MB 231, CM-H2DCFDA. As to the method: The upregulation of ROS upon treatment with NIIST-AC-1 was analyzed using the fluorescent probe CM-H2DCFDA (Sigma). After treatment, the cells were incubated DMEM containing CM-H2DCFDA at a final concentration of 5 μM at 37° C. for 30 min. The trypsinised cells were then suspended in PBA and analyzed using FACS (BD FACSAria II (BD Biosciences) at fluorescein isothiocyanate (FITC) range (excitation 495 nm, emission 529 nm bandpass filter). The mean fluorescence intensities of different groups were analyzed by BD FACSDiva ver 6.1.3 software and corrected for autofluorescence from unlabeled cells.

In data set [6] the test system is MDA MB 231 cells. Description: Anoikis assay. Format: cell-based, human. Conditions: MDA MB 231, anoikis chamber, 48 hrs. The method, then:
The effect of NIIST-AC-1 on anoikis resistance was analyzed using Anoikis Assay Kit by following the manufacturer's protocol. The cells were seeded in ultralow attachment plate 9anoikis chamber) after pretreating with different concentrations of NIIST-AC-1. After 48 hrs, the cells were observed under the phase-contrast microscope (Nikon Eclipse TS100) for observing the attachment and images were captured using NIS-Elements 3.21.00 imaging software. The viability of the cells was also measured by MTT assay.

Data set [7] concerns MDA MB 231 cells. Description: Growth inhibitory study of I-8 in combination with paclitaxel. The format is cell-based, human. Conditions: 5 μM I-8 in combination with paclitaxel.
For data set [8], the system named is normal human lung fibroblast cells (WI 30). Kind of data set: Toxicity in normal fibroblast cells (phase contrast images). Format: cell-based. The note with it: normal fibroblast cells (WI30), FIG. 3. As to the method:
as §1
Morphological analysis of the cells treated with NIIST-AC-1 at different concentrations were monitored using phase contrast microscope Nikon EclipseTS100 (Nikon Instruments Inc., Melville, NY, USA, Magnification 20×) and SEM (Zeiss EVO 18 Special Edition) at ×2k and ×5k magnification.

In data set [9] the test system is MDA MB 231 cells. Description: Cell cycle analysis (PI flow cytometry, western blot). The format is cell-based, human. As to the method:
The distribution of cells in different phases of cell cycle was determined by flow cytometry after staining with propidium iodide. After treatment, the cells were harvested, ethanol fixed and stained with propidium iodide at 25° C. for 30 minutes. The cellular DNA content was measured with BD FACS Fortessa X-20 SORP according to detected signals in FL2 channel (excitation, 493 nm; emission, 636 nm) and data were analyzed with FloJo software, version 9. Approximately 10,000 cells were counted for each analysis, and the distribution of cells in each phase of the cell cycle was saved as histograms. Western blot analysis was done to study the expression profiles of various proteins involved in the cell cycle machinery.

For the molecule `COc1cc(-c2cc(C(=O)NCc3cc(C(F)(F)F)cc(C(F)(F)F)c3)[nH]n2)cc(OC)c1OC` [I-8, N-(3,5-bis(trifluoromethyl)benzyl)-3-(3,4,5-trimethoxyphenyl)-1H-pyrazole-5-carboxamide], in the data set with MDA MB 231 cells [1], the colony formation result was “inhibition of colony formation”. Besides, the glucose uptake result in the data set with MDA MB 231 cells [2] is “significant reduction in the uptake of glucose”. Further, the EGFR expression result in the data set with EGFR is reported as “reduction in EGFR expression”. Besides, the GI50 in the data set with MDA MB 231 cells [3] came to 15.1 µM. In addition, the “expression of apoptotic proteins (intrinsic and extrinsic pathways)” value in data set [4] was “upregulated the proteins involved in intrinsic and extrinsic pathways”. For the same molecule, in the data set with caspase-3, the “caspase 3 activity” value was “upregulated caspase activity”. The ROS generation entry in the data set on MDA MB 231 cells [5] is given as “significant generation of ROS”. For the same molecule, the “detachment induced cell death (anoikis)” value in the data set with MDA MB 231 cells [6] was “induced detachment induced cell death (anoikis)”. Further, the “lowering of paclitaxel concentration required for 50% growth inhibition” value in the data set with MDA MB 231 cells [7] is given as 10 times. For the same molecule, in [8], the “cytotoxicity in normal fibroblasts” value is recorded as “without having cytotoxicity; also recorded: no toxic”. Besides, the cell cycle arrest result with MDA MB 231 cells [9] (MDA MB 231, PI labelling, FACS) is on record as “cell cycle arrest at S phase”. Further, the “cell cycle regulatory proteins cyclin B1, cyclin A2 and CDK” value in the data set with MDA MB 231 cells [9] (western blot) is given as “downregulated”.
